How the values were obtained:
[1] = molecular target: T1, ATX in human plasma (Homo sapiens, UniProt Q13822); assay: Analysis in vitro: detection of LPA in human plasma for screening activity (LPA 18:2 by LC/MS/MS); assay type: biochemical; settings: incubated 2 hours at 37° C., LPA 18:2 detected by LC/MS/MS
T1 construct: blank plasma was derived from at least 6 individual people; from tissue; host or cells: human plasma (pooled from at least 6 individuals)
How it was run: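 Compounds at 0 to 10 μM were incubated for 2 h at 37° C. under 5% CO2 in pooled human plasma (≥6 donors), with endogenous LPC acting as substrate. LPA 18:2 was quantified by LC/MS/MS with an LPA 17:0 internal standard after methanol precipitation. IC50 values came from residual activity relative to compound-free plasma across 8 points of a 3-fold dilution series.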

[2] = molecular target: ATX (Homo sapiens, UniProt Q13822); assay: Analysis in vitro: LPC was used as substrate for screening enzyme activity (Amplex Red fluorescence); assay type: biochemical; settings: inhibitory activity against ATX, with LPC as substrate
How it was run: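 ATX lysoPLD activity was measured by coupled detection: LPC hydrolysis releases choline, which choline oxidase/HRP convert to an Amplex Red fluorescent signal (ex 530/em 590 nm). The enzyme mix (2 ng/μl ATX, 2 U/ml HRP, 0.2 U/ml choline oxidase) was combined with the substrate mix ([…], 400 μM Amplex Red) and 10-point threefold compound dilutions for 30 min. IC50 was derived from the inhibition ratio.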

Structure (SMILES) | IC50 [1] | IC50 [2]
CCc1nc2sc(N3CCC[C@@H](N(C)CC(=O)N4CC(O)C4)C3)nn2c1N(C)c1nc(-c2ccc(F)cc2)c(C#N)s1 [Example 23, (R)-2-{[6-ethyl-2-(3-((2-(3-hydroxyazetidin-1-yl)-2-oxoethyl)(methyl)amino)piperidin-1-yl)imidazo[2,1-b][1,3,4]thiadiazol-5-yl](methyl)amino}-4-(4-fluorophenyl)thiazole-5-carbonitrile] | 100 to 500 nM | 100 to 500 nM
CCc1nc2sc(N3CC[C@H](N(C)CC(=O)N4CC(F)C4)C3)nn2c1N(C)c1nc(-c2ccc(F)cc2)c(C#N)s1 [Example 38, (S)-2-{[6-ethyl-2-(3-((2-(3-fluoroazetidin-1-yl)-2-oxoethyl)(methyl)amino)pyrrolidin-1-yl)imidazo[2,1-b][1,3,4]thiadiazol-5-yl](methyl)amino}-4-(4-fluorophenyl)thiazole-5-carbonitrile] | 100 to 500 nM | 0.01 to 100 nM
CCc1nc2sc(N3CCC4(CC3)CN(C(N)=O)C4)nn2c1N(C)c1nc(-c2ccc(F)cc2)c(C#N)s1 [Example 8] | 100 to 500 nM | 100 to 500 nM
CCc1nc2sc(N3CCC(N(C)CC(=O)N4CC(O)C4)C3)nn2c1N(C)c1nc(-c2ccc(F)cc2)c(C#N)s1 (centres unmarked) [Example 11] | 0.01 to 100 nM | 0.01 to 100 nM
CCc1nc2sc(N3CC[C@@H](N(C)C(N)=O)C3)nn2c1N(C)c1nc(-c2ccc(F)cc2)c(C#N)s1 [Example 19, (R)-1-{1-[5-((5-cyano-4-(4-fluorophenyl)thiazol-2-yl)(methyl)amino)-6-ethylimidazo[2,1-b][1,3,4]thiadiazol-2-yl]pyrrolidin-3-yl}-1-methylurea] | 100 to 500 nM | 0.01 to 100 nM
CCc1nc2sc(N3CCC[C@H](N(C)CC(=O)N4CC(O)C4)C3)nn2c1N(C)c1nc(-c2ccc(F)cc2)c(C#N)s1 [Example 24, (S)-2-{[6-ethyl-2-(3-((2-(3-hydroxyazetidin-1-yl)-2-oxoethyl)(methyl)amino)piperidin-1-yl)imidazo[2,1-b][1,3,4]thiadiazol-5-yl](methyl)amino}-4-(4-fluorophenyl)thiazole-5-carbonitrile] | 0.01 to 100 nM | 0.01 to 100 nM
CCc1nc2sc(N3CCCC(N(C)C(N)=O)C3)nn2c1N(C)c1nc(-c2ccc(F)cc2)c(C#N)s1 (centres unmarked) [Example 15, 1-{1-[5-((5-cyano-4-(4-fluorophenyl)thiazol-2-yl)(methyl)amino)-6-ethylimidazo[2,1-b][1,3,4]thiadiazol-2-yl]piperidin-3-yl}-1-methylurea] | 0.01 to 100 nM | 0.01 to 100 nM
